Source: US20260083851A1 (AVILAR THERAPEUTICS, INC., priority 2022, published 2026)

Target: T1, ASGP receptor (biotinylated ASGPR) (Homo sapiens, UniProt P07306)
T1 construct: biotin (biotinylated)
T1 sequence (P07306 1-291): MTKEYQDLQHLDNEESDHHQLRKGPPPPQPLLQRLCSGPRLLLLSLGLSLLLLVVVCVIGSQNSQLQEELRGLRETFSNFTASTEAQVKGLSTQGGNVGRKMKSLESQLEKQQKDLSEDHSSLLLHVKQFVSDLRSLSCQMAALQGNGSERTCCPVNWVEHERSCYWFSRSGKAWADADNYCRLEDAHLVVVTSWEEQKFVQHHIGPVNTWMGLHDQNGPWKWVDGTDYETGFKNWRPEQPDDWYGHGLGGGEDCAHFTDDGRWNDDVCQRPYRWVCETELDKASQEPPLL
Type: binding
Conditions: SPR, Biacore 8K, 25° C.; Table 1A; read-out: ASGPR KD

Structure (SMILES)	Kd [µM]
O[C@@H]1[C@H](O)[C@@H](Nc2cncc(C(F)(F)F)n2)CO[C@@H]1CN1CCCCCCC1 [A73, (2R,3R,4R,5S)-2-(azocan-1-ylmethyl)-5-((6-(trifluoromethyl)pyrazin-2-yl)amino)tetrahydro-2H-pyran-3,4-diol]	< 10
O=C(O)CCC(=O)NC1CC2(C1)CC(NC(=O)C[C@H]1OC[C@H](Nc3cncc(C(F)(F)F)n3)[C@@H](O)[C@H]1O)C2 (some centres unmarked) [A93]	< 10
O=C(O)c1cc2ccc1CCc1ccc(c(C(=O)NC[C@H]3OC[C@H](Nc4cncc(C(F)(F)F)n4)[C@@H](O)[C@H]3O)c1)CC2 [A66, 4^3-((((2R,3R,4R,5S)-3,4-dihydroxy-5-((6-(trifluoromethyl)pyrazin-2-yl)amino)tetrahydro-2H-pyran-2-yl)methyl)carbamoyl)-1,4(1,4)-dibenzenacyclohexaphane-1^2-carboxylic acid]	< 10

The next lines start with the values.

Kd [µM]	Structure (SMILES)
< 10	O=C(NC[C@H]1OC[C@H](Nc2cncc(C(F)(F)F)n2)[C@@H](O)[C@H]1O)Nc1ccc(C(=O)O)cc1 [A113, 4-(3-(((2R,3R,4R,5S)-3,4-dihydroxy-5-((6-(trifluoromethyl)pyrazin-2-yl)amino)tetrahydro-2H-pyran-2-yl)methyl)ureido)benzoic acid]
< 10	O[C@@H]1[C@H](O)[C@@H](Nc2cncc(C(F)(F)F)n2)CO[C@@H]1COc1cnccn1 [A60, (2R,3R,4R,5S)-2-((pyrazin-2-yloxy)methyl)-5-((6-(trifluoromethyl)pyrazin-2-yl)amino)tetrahydro-2H-pyran-3,4-diol]
< 10	O=S(=O)(NC[C@H]1OC[C@H](Nc2cncc(C(F)(F)F)n2)[C@@H](O)[C@H]1O)c1ccccc1 [A112, N-(((2R,3R,4R,5S)-3,4-dihydroxy-5-((6-(trifluoromethyl)pyrazin-2-yl)amino)tetrahydro-2H-pyran-2-yl)methyl)benzenesulfonamide]
< 10	O=C(NC[C@H]1OC[C@H](Nc2cncc(C(F)(F)F)n2)[C@@H](O)[C@H]1O)c1ncc2ccccc2n1 [A81, N-(((2R,3R,4R,5S)-3,4-dihydroxy-5-((6-(trifluoromethyl)pyrazin-2-yl)amino)tetrahydro-2H-pyran-2-yl)methyl)quinazoline-2-carboxamide]
< 10	O=C(NC[C@H]1OC[C@H](Nc2cncc(C(F)(F)F)n2)[C@@H](O)[C@H]1O)Nc1ccccc1 [A114, 1-(((2R,3R,4R,5S)-3,4-dihydroxy-5-((6-(trifluoromethyl)pyrazin-2-yl)amino)tetrahydro-2H-pyran-2-yl)methyl)-3-phenylurea]
< 10	O=C(NC[C@H]1OC[C@H](Nc2cncc(C(F)(F)F)n2)[C@@H](O)[C@H]1O)c1ncc[nH]1 [A40, N-(((2R,3R,4R,5S)-3,4-dihydroxy-5-((6-(trifluoromethyl)pyrazin-2-yl)amino)tetrahydro-2H-pyran-2-yl)methyl)-1H-imidazole-2-carboxamide]
< 10	O=C(NC[C@H]1OC[C@H](Nc2cncc(C(F)(F)F)n2)[C@@H](O)[C@H]1O)c1cccnc1 [A63, N-(((2R,3R,4R,5S)-3,4-dihydroxy-5-((6-(trifluoromethyl)pyrazin-2-yl)amino)tetrahydro-2H-pyran-2-yl)methyl)nicotinamide]
< 10	O=C(NC[C@H]1OC[C@H](Nc2cncc(C(F)(F)F)n2)[C@@H](O)[C@H]1O)c1ccc2[nH]cnc2c1 [A6, N-(((2R,3R,4R,5S)-3,4-dihydroxy-5-((6-(trifluoromethyl)pyrazin-2-yl)amino)tetrahydro-2H-pyran-2-yl)methyl)-1H-benzo[d]imidazole-5-carboxamide]

Same assay, conditions: SPR, Biacore 8K, 25° C.; Table 1B, numeric bound; read-out: ASGPR Kd

Kd [µM]	Structure (SMILES)
> 30	OC[C@H]1OC[C@H](NC2CCC2)[C@@H](O)[C@H]1O [A166, (2R,3R,4R,5S)-5-(cyclobutylamino)-2-(hydroxymethyl)tetrahydro-2H-pyran-3,4-diol]

Same assay, conditions: SPR, Biacore 8K, 25° C.; Table 1B; read-out: ASGPR Kd

Kd [µM]	Structure (SMILES)
< 10	COc1cccc(N[C@H]2CO[C@H](CO)[C@H](O)[C@@H]2O)n1 [A164, (2R,3R,4R,5S)-2-(hydroxymethyl)-5-((6-methoxypyridin-2-yl)amino)tetrahydro-2H-pyran-3,4-diol]
< 10	O=C(OCc1ccccc1)N1C[C@H](Nc2cncc(C(F)(F)F)n2)[C@@H](O)[C@@H](O)C1 [A149, benzyl (3S,4R,5S)-3,4-dihydroxy-5-((6-(trifluoromethyl)pyrazin-2-yl)amino)piperidine-1-carboxylate]

Same assay, conditions: SPR, Biacore 8K, 25° C.; Table 1C, numeric bound; read-out: ASGPR KD

Kd [µM]	Structure (SMILES)
> 30	OC[C@H]1OC[C@H](Nc2ncc3nc[nH]c3n2)[C@@H](O)[C@H]1O [A197, (2R,3R,4R,5S)-5-((9H-purin-2-yl)amino)-2-(hydroxymethyl)tetrahydro-2H-pyran-3,4-diol]

Same assay, conditions: SPR, Biacore 8K, 25° C.; Table 1C; read-out: ASGPR KD

Structure (SMILES)	Kd [µM]
CC(C)(C)OC(=O)N1CCC2(CC1)CN(C[C@H]1OC[C@H](Oc3cccc(C(F)(F)F)n3)[C@@H](O)[C@H]1O)C2 [A267]	< 10
O[C@@H]1[C@@H](Nc2cncc(C(F)(F)F)n2)[C@H]2OC[C@](COc3cnccn3)(O2)[C@@H]1O [A269]	< 10
C[C@H]1O[C@H](c2ccc3c(c2)CNC3)[C@H](Oc2cccc(C(F)(F)F)n2)[C@@H](O)[C@H]1O [A341]	< 10
C[C@H]1O[C@H](c2ccc3ccccc3n2)[C@H](Oc2cccc(C(F)(F)F)n2)[C@@H](O)[C@H]1O [A343]	< 10
CC(C)(C)OC(=O)N1CCC(Cc2ccc(OC[C@H]3OC[C@H](Oc4cccc(C(F)(F)F)n4)[C@@H](O)[C@H]3O)nn2)CC1 [A280]	< 10
[O-][n+]1c(O[C@H]2CO[C@H](CSc3ccccc3)[C@H](O)[C@@H]2O)cccc1C(F)(F)F [A312]	< 10

Now from value to compound:

Kd [µM]	Structure (SMILES)
< 10	O[C@@H]1[C@H](O)[C@@H](Oc2cncc(C(F)(F)F)n2)CO[C@@H]1COc1ccc(Br)c(F)c1 [A210, (2R,3R,4S,5S)-2-((4-bromo-3-fluorophenoxy)methyl)-5-((6-(trifluoromethyl)pyrazin-2-yl)oxy)tetrahydro-2H-pyran-3,4-diol]
< 10	O=C1CCCN1C[C@H]1OC[C@H](Oc2cccc(C(F)(F)F)n2)[C@@H](O)[C@H]1O [A258]
< 10	O=C(c1ccc(Cl)cc1)[C@H]1OC[C@H](Oc2cccc(C(F)(F)F)n2)[C@@H](O)[C@H]1O [A299]
< 10	C[C@H]1O[C@H](c2ncncc2F)[C@H](Oc2cccc(C(F)(F)F)n2)[C@@H](O)[C@H]1O [A338]
< 10	O[C@@H]1[C@H](O)[C@@H](Oc2cccc(C(F)(F)F)n2)CO[C@@H]1CN1CCCCC1 [A233, (2R,3R,4S,5S)-2-(piperidin-1-ylmethyl)-5-((6-(trifluoromethyl)pyridin-2-yl)oxy)tetrahydro-2H-pyran-3,4-diol]
< 10	O[C@@H]1[C@H](O)[C@@H](Oc2cccc(C(F)(F)F)n2)CO[C@@H]1COc1ccc(-c2ccccc2)cc1 [A190, (2R,3R,4S,5S)-2-(([1,1′-biphenyl]-4-yloxy)methyl)-5-((6-(trifluoromethyl)pyridin-2-yl)oxy)tetrahydro-2H-pyran-3,4-diol]
< 10	O[C@@H]1[C@H](O)[C@@H](Nc2cccc(C(F)(F)F)n2)CO[C@@H]1COc1ccc(-c2ccccc2)cc1 [A196, (2R,3R,4R,5S)-2-(([1,1′-biphenyl]-4-yloxy)methyl)-5-((6-(trifluoromethyl)pyridin-2-yl)amino)tetrahydro-2H-pyran-3,4-diol]
< 10	O=C1c2occc2CN1C[C@H]1OC[C@H](Oc2cccc(C(F)(F)F)n2)[C@@H](O)[C@H]1O [A290]
< 10	O[C@@H]1[C@H](O)[C@@H](Nc2cccc(C(F)(F)F)n2)CO[C@@H]1COc1cccnn1 [A227, (2R,3R,4R,5S)-2-((pyridazin-3-yloxy)methyl)-5-((6-(trifluoromethyl)pyridine-2-yl)amino)tetrahydro-2H-pyran-3,4-diol]
< 10	N#Cc1ncc(OC[C@H]2OC[C@H](Nc3cncc(C(F)(F)F)n3)[C@@H](O)[C@H]2O)cn1 [A203, 5-(((2R,3R,4R,5S)-3,4-dihydroxy-5-((6-(trifluoromethyl)pyrazin-2-yl)amino)tetrahydro-2H-pyran-2-yl)methoxy)pyrimidine-2-carbonitrile]
< 10	C#C[C@H]1OC[C@H](Oc2cccc(C(F)(F)F)n2)[C@@H](O)[C@H]1O [A219, (2R,3R,4S,5S)-2-ethynyl-5-((6-(trifluoromethyl)pyridin-2-yl)oxy)tetrahydro-2H-pyran-3,4-diol]

Same assay, conditions: SPR, Biacore 8K, 25° C.; Table 1D, numeric bound; read-out: ASGPR KD

Kd [µM]	Structure (SMILES)
> 30	O=C(OCc1ccccc1)N1C[C@H](O)[C@H](O)[C@@H](S(=O)(=O)c2cncc(C(F)(F)F)n2)C1 [A358]
> 30	O=C(OCc1ccccc1)N1C[C@H](O)[C@H](O)[C@@H](S(=O)(=O)c2cccc(C(F)(F)F)n2)C1 [A356]

Same assay, conditions: SPR, Biacore 8K, 25° C.; Table 1D; read-out: ASGPR KD

Kd [µM]	Structure (SMILES)
< 10	O[C@@H]1[C@@H](Nc2cncc(C(F)(F)F)n2)CN(c2ccccc2)C[C@@H]1O [A393]
< 10	O=C(OCc1ccccc1)N1C[C@H](Nc2nccc(C(F)(F)F)n2)[C@@H](O)[C@@H](O)C1 [A369]
< 10	O=C(OCc1ccccc1)N1CCC(N2C[C@H](Nc3cccc(C(F)(F)F)n3)[C@@H](O)[C@@H](O)C2)C(F)(F)C1 (some centres unmarked) [A412]
< 10	O[C@@H]1[C@@H](Nc2cncc(C(F)(F)F)n2)CN(CC(F)(F)F)C[C@@H]1O [A367]
< 10	O=C(Oc1ccc(-c2ccccc2)cc1)N1C[C@H](Nc2cncc(C(F)(F)F)n2)[C@@H](O)[C@@H](O)C1 [A384]

Same assay, conditions: SPR, Biacore 8K, 25° C.; Table 1E; read-out: ASGPR KD

Kd [µM]	Structure (SMILES)
< 10	C[C@H]1O[C@H](COc2ncccn2)[C@H](Oc2cccc(C(F)(F)F)n2)[C@@H](O)[C@H]1O [A447]
10 to 100	C[C@H]1O[C@H](CO)[C@H](Oc2nccc(C(F)(F)F)n2)[C@@H](O)[C@H]1O [A437]
